Test results: patent US20230257385A1, “SALT AND SOLID FORMS OF TABERNANTHALOG” (priority 2021, published 2023)

Legend:
[1] = Equilibrium humidity evaluation 75% RH/40° C., 10 days (Example 8, Experiment 6); format: physicochemical; conditions: Fumarate salt, input before humidity exposure
Method: The experimental procedure that accompany this experiment is provided in Section G.ii.
All forms were maintained under constant equilibrium humidity (75% RH). XRPD, DSC, TGA, PLM and ^1H NMR analyses were performed on the absorbents at t=5 d and t=10 d, to confirm their physical fates and to determine the extent of residual solvent exchange or sequestration.
100 mg portions of Tabernanthalog salts ([…]) were placed in the relevant open vials. The powders were finely divided and distributed evenly over the base of the vial, such that equal material coverage across the panel was observed. These samples were then maintained 40° C. under 75% RH. The samples were sub-sampled at intervals of 5 and 10 days and analyzed by ^1H NMR, HPLC, XRPD, DSC, TGA and PLM, for evidence of phase change or chemical degradation.

[2] = DVS analyses of sorbate salt Form A / Form C (Example 10); format: physicochemical; conditions: 0% to 90% to 0% RH
Source text: DVS analyses of Form A (Performed on batch reference: Experiment 11-Sample -A1) To determine whether Form A underwent form change at high % RH, DVS residues of Form A, from 0 to 80% RH and 0 to 90% RH, were examined. The specimens were equilibrated to constant mass, at 80% and 90% RH set-points, removed, placed in a capped vial, and analysed by XRPD and DSC. Based on the SC-XRD at 100 K, no regular voids in the crystal structure were large enough to accommodate non-crystal-bonded, molecular water with minimum probe radius of 1.4 Å.
The moisture sorption properties of the feed API were analysed by DVS Intrinsic instrument (Surface Measurement System). Approximately 20 to 50 mg of API was weighed onto an aluminium pan and loaded into the instrument equilibrated at 25° C. The sample was equilibrated under a dry atmosphere (0% relative humidity) for 60 minutes, before increasing the humidity from 0% to 30% at 5% step increment and from 30% to 90% at 10% step increment. A desorption cycle was also applied from 90% to 30% (10% step decrement) and from 30% to 0% (5% step decrement). A rate of change in mass per time unit (dm/dt) of 0.002%/min was set as the equilibrium parameter. Kinetic and isotherm graphs were calculated.
5. DVS Analyses: 0% to 90% DVS Mass Per Unit Time Equilibrated at Dm/Dt (0.0002%/Min)

[3] = Heat-up/cool down (HUCD) crystallization of the monofumarate salt (Experiment Reference 11); format: physicochemical; conditions: for XRPD (oven dried): form of product from HUCD crystallization of tabernanthalog fumarate Sample Reference 1 (Pattern #1), solvents per sample as in E1; for Observations (t = 0 @ T = 20° C.): input tabernanthalog fumarate Sample Reference 1 (Pattern #1), Solvent A/B: 11-A acetone/water, 11-B acetonitrile/water, 11-C butanol/water, 11-D tBME/methanol, 11-E DCM/methanol, 11-F ethanol/water, 11-G methyl acetate/water/methanol, 11-H 2-propanol/water, 11-1 methanol, 11-J MEK/water, 11-K 2-MeTHF/methanol, 11-L THF/water, 11-M toluene/methanol, 11-N water, 11-O dioxane/water, 11-P CPME/methan
Method: Separate portions of the tabernanthalog monofumarate salt (Pattern #1, Sample Reference 1, ca 75 mg, 1.0 wt.) were charged to separate vessels. The appropriate solvents (750 μl, 10.0 vol, refer to Table 106) were charged to the relevant vessels and subsequent charges of the appropriate co-solvent were made to accomplish dissolution at reflux. The solutions were cooled to 18 to 23° C. and allowed to stand undisturbed, until crystallization was judged complete. After this time the products were isolated by centrifugation, washed with recycled maturation solvent, dried under reduced pressure at 40° C. and analyzed by XRPD for evidence of alternative crystalline forms.

[4] = format: physicochemical; conditions: salt screen, Experiment 2
Method: Tabernanthalog (native) (50 mg, 1 wt) was charged to a solution of the relevant counter ion (1.0 mol equivalence of counter ion) in ethanol (5.0 vol, 250 μl). The mixtures were warmed to 85° C. and small aliquots of water were added until dissolution occurred (Table 212 for additional charges of solvent). The solutions were cooled and allowed to stand undisturbed under sub-ambient conditions overnight (Table 211). […] Products were isolated via centrifugation. The corresponding pellets were sub-sampled and analyzed wet by XRPD; after which, they were dried at 40° C. under reduced pressure over 20 h and reanalyzed by XRPD. […] Once the crystallization experiments were completed, salt formation was confirmed by ^1H NMR, XRPD, DSC and TGA.

COc1ccc2c3c([nH]c2c1)CCN(C)CC3.O=C(O)/C=C/C(=O)O [8-A4 of Example 5]
Tabernanthalog RRT = 1.00 (trended HPLC data, chemical purity) [1]: 99.04

C/C=C/C=C/C(=O)O.COc1ccc2c3c([nH]c2c1)CCN(C)CC3.O [Form C (Pattern #2)]
form change during DVS [2]: reverted to Form A on the desorption cycle

COc1ccc2c3c([nH]c2c1)CCN(C)CC3.O=C(O)/C=C/C(=O)O [Sample 11-K]
XRPD (oven dried) [3]: Pattern #5
Observations (t = 0 @ T = 20° C.) [3]: suspension

COc1ccc2c3c([nH]c2c1)CCN(C)CC3.O=C(O)/C=C/C(=O)O [Sample 11-L]
XRPD (oven dried) [3]: Pattern #6a
Observations (t = 0 @ T = 20° C.) [3]: solution

COc1ccc2c3c([nH]c2c1)CCN(C)CC3.O=C(O)/C=C/C(=O)O [Sample 11-M]
XRPD (oven dried) [3]: Pattern #6b
Observations (t = 0 @ T = 20° C.) [3]: suspension

COc1ccc2c3c([nH]c2c1)CCN(C)CC3.O=C(O)/C=C/C(=O)O [Sample 11-N]
XRPD (oven dried) [3]: Pattern #6a
Observations (t = 0 @ T = 20° C.) [3]: suspension

COc1ccc2c3c([nH]c2c1)CCN(C)CC3.O=C(O)/C=C/C(=O)O [Sample 11-O]
XRPD (oven dried) [3]: Pattern #6a
Observations (t = 0 @ T = 20° C.) [3]: suspension

COc1ccc2c3c([nH]c2c1)CCN(C)CC3.O=C(O)/C=C/C(=O)O [Sample 11-P]
XRPD (oven dried) [3]: Pattern #5
Observations (t = 0 @ T = 20° C.) [3]: suspension

COc1ccc2c3c([nH]c2c1)CCN(C)CC3.O=C(O)/C=C/C(=O)O [Sample 11-Q]
XRPD (oven dried) [3]: Pattern #5
Observations (t = 0 @ T = 20° C.) [3]: solution

COc1ccc2c3c([nH]c2c1)CCN(C)CC3.O=C(O)CCCCC(=O)O [Tabernanthalog · Adipate]
Discrete melt (DSC)? [4]: ✓
Flat baseline (DSC)? [4]: ✓
Unique XRPD? [4]: ✓
